Our source for the Ki and EC50 values is BindingDB's records for PubMed 38621327 (Hebei University).

Each structure is given as a SMILES string.

The nature of test [1]: Binding affinity to rat heart mitochondria CPT1 assessed as inhibition constant incubated for 3 to 6 mins by Liquid scintillation counting method.
For test [2], the target named is Transcriptional enhancer factor TEF-3 (Homo sapiens, UniProt Q15561). As to the kind of experiment: Inhibition of GST-tagged recombinant TEAD4 (unknown origin) (217 to 434 residues) expressed in Escherichia coli BL21 (DE3) by fluorescence polarization assay.
Sequence of Transcriptional enhancer factor TEF-3 (Q15561 whole entry, the tested form may be a part): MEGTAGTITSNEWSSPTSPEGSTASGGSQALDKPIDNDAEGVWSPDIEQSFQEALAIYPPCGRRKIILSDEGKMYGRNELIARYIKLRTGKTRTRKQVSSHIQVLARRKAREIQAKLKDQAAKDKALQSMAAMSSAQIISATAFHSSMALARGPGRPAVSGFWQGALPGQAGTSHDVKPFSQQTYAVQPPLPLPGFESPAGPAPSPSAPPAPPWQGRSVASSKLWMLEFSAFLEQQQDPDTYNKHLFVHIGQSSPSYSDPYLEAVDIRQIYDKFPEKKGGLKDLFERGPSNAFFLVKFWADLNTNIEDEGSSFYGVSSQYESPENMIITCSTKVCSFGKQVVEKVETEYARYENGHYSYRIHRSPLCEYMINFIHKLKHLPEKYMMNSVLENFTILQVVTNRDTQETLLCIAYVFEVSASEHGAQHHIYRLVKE

As to `CCCCCCCCCCCCCCC[C@]1(O)C[C@H](CC(=O)[O-])C[N+](C)(C)C1`, in test [1], the Ki amounted to 2.8 µM. Regarding `O=C(CCl)c1ccccc1Nc1cccc(C(F)(F)F)c1`, in test [2], the EC50 is 5.9 µM.
